Measured values taken from ChEMBL document CHEMBL4340507, “Identification of an indol-based multi-target kinase inhibitor through phenotype screening and target fishing using inverse virtual screening approach” (Eur J Med Chem, 2019).
The source made the active and inactive calls. The calls are words filed in the database; no cut-off is given here.

Columns and labels:
MCF7 = assay: Antiproliferative activity against human MCF7 cells assessed as decrease in cell viability measured after 72 hrs by MTT assay; assay type: functional, cell-based; conditions: MCF7, 72 h
Jurkat = assay: Antiproliferative activity against human Jurkat T cells assessed as decrease in cell viability measured after 24 to 72 hrs by MTT assay; assay type: functional, cell-based
IEC-6 [1] = assay: Cell cycle arrest in rat IEC-6 cells assessed as accumulation at G0/G1-phase at 0.1 to 0.6 uM after 24 hrs by propidium iodide staining-based FACS analysis; assay type: ADME; conditions: iec-6, 24 h
SRSF protein kinase 1 = SRSF protein kinase 1 (Homo sapiens, UniProt Q96SB4); assay: Inhibition of recombinant human full-length N-terminal GST-His6-fused SRPK1 (M1 to S655 residues) expressed in Sf9 insect cells using RS-peptide as substrate measured after 60 mins in presence of [gamma-33P]-ATP by scintillation counting method
[2] = molecular target: BDNF/NT-3 growth factors receptor (Homo sapiens, UniProt Q16620); assay: Inhibition of recombinant human N-terminal GST-His6-fused TRKB C-terminal domain (V526 to G838 residues) expressed in Sf9 insect cells using Poly(Glu:Tyr)4:1 as substrate measured after 60 mins in presence of [gamma-33P]-ATP by scintillation counting method
[3] = molecular target: Proto-oncogene tyrosine-protein kinase Src (Homo sapiens, UniProt P12931); assay: Inhibition of recombinant human full-length N-terminal GST-His6-fused SRC (M1 to L536 residues) expressed in Sf9 insect cells using Poly(Glu:Tyr)4:1 as substrate measured after 60 mins in presence of [gamma-33P]-ATP by scintillation counting method
[4] = molecular target: Mast/stem cell growth factor receptor Kit (Homo sapiens, UniProt P10721); assay: Inhibition of recombinant human wild-type N-terminal GST-His6-fused KIT C-terminal domain (T544 to V976 residues) expressed in Sf9 insect cells using TRK-C derived peptide as substrate measured after 60 mins in presence of [gamma-33P]-ATP by scintillation counting method
[5] = molecular target: Fibroblast growth factor receptor 1 (Homo sapiens, UniProt P11362); assay: Inhibition of recombinant human wild-type N-terminal GST-His6-fused FGFR1 C-terminal domain (G400 to R820 residues) expressed in Sf9 insect cells using Poly(Glu:Tyr)4:1 as substrate measured after 60 mins in presence of [gamma-33P]-ATP by scintillation counting method
[6] = molecular target: RAC-beta serine/threonine-protein kinase (Homo sapiens, UniProt P31751); assay: Inhibition of recombinant human N-terminal GST-His6-fused AKT2 C-terminal domain (A107 to E481 residues) expressed in Sf9 insect cells using GSK3(14-27)tide as substrate measured after 60 mins in presence of [gamma-33P]-ATP by scintillation counting method
[7] = molecular target: Fibroblast growth factor receptor 2 (Homo sapiens, UniProt P21802); assay: Inhibition of recombinant human N-terminal GST-His6-fused FGFR2 C-terminal domain (R400 to T822 residues) expressed in Sf9 insect cells using TRK-C derived peptide as substrate measured after 60 mins in presence of [gamma-33P]-ATP by scintillation counting method
[8] = molecular target: Vascular endothelial growth factor receptor 1 (Homo sapiens, UniProt P17948); assay: Inhibition of recombinant human N-terminal GST-tagged VEGFR1 C-terminal domain (K784 to I1338 residues) expressed in Sf9 insect cells using Poly(Glu:Tyr)4:1 as substrate measured after 60 mins in presence of [gamma-33P]-ATP by scintillation counting method
[9] = molecular target: Rho-associated protein kinase 1 (Homo sapiens, UniProt Q13464); assay: Inhibition of recombinant human ROCK1 measured after 60 mins in presence of [gamma-33P]-ATP by scintillation counting method
[10] = molecular target: Mitogen-activated protein kinase 15 (Homo sapiens, UniProt Q8TD08); assay: Inhibition of recombinant human N-terminal 4xFLAG-tagged/C-terminal His8-fused ERK7 N-terminal domain (M1 to R354 residues) expressed in Sf9 insect cells using RBER-CHKtide as substrate measured after 60 mins in presence of [gamma-33P]-ATP by scintillation counting method
Wee1-like protein kinase = Wee1-like protein kinase (Homo sapiens, UniProt P30291); assay: Inhibition of recombinant human N-terminal GST-His6-fused WEE1 C-terminal domain (Q36 to Y432 residues) expressed in Sf9 cells using Poly(Ala,Glu,Lys,Tyr)6:2:5:1 as substrate measured after 60 mins in presence of [gamma-33P]-ATP by scintillation counting method
[11] = molecular target: Mitogen-activated protein kinase 7 (Homo sapiens, UniProt Q13164); assay: Inhibition of recombinant human N-terminal FLAG-tagged/C-terminal His8 fused ERK5 internal fragment domain (L5 to Q397 residues) expressed in Sf9 insect ells using RBER-CHKtide as substrate measured after 60 mins in presence of [gamma-33P]-ATP by scintillation counting method
[12] = molecular target: Mitogen-activated protein kinase kinase kinase 9 (Homo sapiens, UniProt P80192); assay: Inhibition of recombinant human MAP3K9 measured after 60 mins in presence of [gamma-33P]-ATP by scintillation counting method
[13] = molecular target: Dual specificity mitogen-activated protein kinase kinase 1 (Homo sapiens, UniProt Q02750); assay: Inhibition of recombinant human wild-type full-length MEK1 (M1 to V393 residues) expressed in Sf9 insect cells using ERK2-K54R as substrate measured after 60 mins in presence of [gamma-33P]-ATP by scintillation counting method
IEC-6 [14] = assay: Cell cycle arrest in rat IEC-6 cells assessed as increase in accumulation at S phase at 0.1 to 0.6 uM after 24 hrs by propidium iodide staining based FACS analysis; assay type: ADME; conditions: iec-6, 24 h
HeLa [15] = assay: Cell cycle arrest in human HeLa cells assessed as accumulation at G0/G1-phase at 0.1 to 0.6 uM after 24 hrs by propidium iodide staining-based FACS analysis; assay type: functional
HeLa [16] = assay: Cell cycle arrest in human HeLa cells assessed as decrease in accumulation at G2-phase at 0.1 to 0.6 uM after 24 hrs by propidium iodide staining-based FACS analysis; assay type: functional
HeLa [17] = assay: Induction of ROS generation in human HeLa cells at 0.1 to 0.6 uM measured after 24 hrs by H2DC-DA probe-based FACS analysis; assay type: functional, cell-based
IEC-6 [18] = assay: Induction of ROS generation in rat IEC-6 cells at 0.1 to 0.6 uM measured after 24 hrs by H2DCF-DA staining-based FACS analysis; assay type: cell-based; conditions: iec-6, 24 h
IEC-6 [19] = assay: Down regulation of ERK expression in rat IEC-6 cells at 0.1 to 0.6 uM after 24 hrs by FACS analysis; assay type: ADME, cell-based; conditions: iec-6, 24 h
[20] = Inhibition of ERK phosphorylation in rat IEC-6 cells at 0.1 to 0.6 uM after 24 hrs by FACS analysis; assay type: cell-based; conditions: iec-6, 24 h
HeLa [21] = assay: Induction of apoptosis in human HeLa cells assessed as effect on PARP level at 0.1 to 0.6 uM after 24 hrs by FACS analysis; assay type: functional, cell-based
IEC-6 [22] = assay: Induction of apoptosis in rat IEC-6 cells assessed as effect on PARP level at 0.1 to 0.6 uM after 24 hrs by FACS analysis; assay type: cell-based; conditions: iec-6, 24 h

Fibroblast growth factor receptor 1, sequence (P11362 whole entry, the tested form may be a part): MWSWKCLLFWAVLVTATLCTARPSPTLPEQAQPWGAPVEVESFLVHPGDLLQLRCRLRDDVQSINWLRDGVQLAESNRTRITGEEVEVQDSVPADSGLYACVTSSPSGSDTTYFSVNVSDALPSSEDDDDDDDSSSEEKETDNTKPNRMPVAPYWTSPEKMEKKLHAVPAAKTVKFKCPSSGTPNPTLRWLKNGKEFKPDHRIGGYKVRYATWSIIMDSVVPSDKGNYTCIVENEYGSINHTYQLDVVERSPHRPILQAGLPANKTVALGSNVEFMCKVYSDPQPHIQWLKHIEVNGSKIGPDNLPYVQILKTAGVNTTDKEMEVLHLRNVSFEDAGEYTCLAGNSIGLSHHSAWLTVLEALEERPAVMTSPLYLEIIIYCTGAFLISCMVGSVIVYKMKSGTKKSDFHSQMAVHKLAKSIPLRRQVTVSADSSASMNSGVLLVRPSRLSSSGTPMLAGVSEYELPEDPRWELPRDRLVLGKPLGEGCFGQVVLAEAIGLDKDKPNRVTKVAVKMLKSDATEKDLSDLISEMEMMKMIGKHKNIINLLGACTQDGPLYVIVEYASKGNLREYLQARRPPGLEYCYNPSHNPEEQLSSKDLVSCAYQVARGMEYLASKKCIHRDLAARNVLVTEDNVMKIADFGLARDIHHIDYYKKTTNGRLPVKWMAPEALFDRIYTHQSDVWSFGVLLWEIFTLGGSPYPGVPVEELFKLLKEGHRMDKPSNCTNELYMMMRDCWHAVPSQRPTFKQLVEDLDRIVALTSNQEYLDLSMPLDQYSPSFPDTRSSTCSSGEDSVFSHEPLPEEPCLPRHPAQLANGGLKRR
Mitogen-activated protein kinase 15, sequence (Q8TD08 whole entry, the tested form may be a part): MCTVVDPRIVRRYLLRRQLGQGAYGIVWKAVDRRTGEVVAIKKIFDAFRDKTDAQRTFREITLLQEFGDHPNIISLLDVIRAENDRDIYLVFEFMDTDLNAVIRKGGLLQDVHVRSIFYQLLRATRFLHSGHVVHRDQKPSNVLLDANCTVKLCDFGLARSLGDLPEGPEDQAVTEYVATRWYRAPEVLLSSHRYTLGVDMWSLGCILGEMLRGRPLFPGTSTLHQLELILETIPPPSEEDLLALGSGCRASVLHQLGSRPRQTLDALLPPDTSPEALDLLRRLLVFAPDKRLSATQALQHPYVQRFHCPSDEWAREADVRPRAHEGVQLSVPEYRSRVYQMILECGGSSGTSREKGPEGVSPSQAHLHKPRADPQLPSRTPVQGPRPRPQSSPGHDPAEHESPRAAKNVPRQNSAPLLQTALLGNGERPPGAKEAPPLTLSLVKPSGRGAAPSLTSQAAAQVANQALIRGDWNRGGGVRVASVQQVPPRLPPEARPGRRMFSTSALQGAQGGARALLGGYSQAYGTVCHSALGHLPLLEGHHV
Mast/stem cell growth factor receptor Kit, sequence (P10721 whole entry, the tested form may be a part): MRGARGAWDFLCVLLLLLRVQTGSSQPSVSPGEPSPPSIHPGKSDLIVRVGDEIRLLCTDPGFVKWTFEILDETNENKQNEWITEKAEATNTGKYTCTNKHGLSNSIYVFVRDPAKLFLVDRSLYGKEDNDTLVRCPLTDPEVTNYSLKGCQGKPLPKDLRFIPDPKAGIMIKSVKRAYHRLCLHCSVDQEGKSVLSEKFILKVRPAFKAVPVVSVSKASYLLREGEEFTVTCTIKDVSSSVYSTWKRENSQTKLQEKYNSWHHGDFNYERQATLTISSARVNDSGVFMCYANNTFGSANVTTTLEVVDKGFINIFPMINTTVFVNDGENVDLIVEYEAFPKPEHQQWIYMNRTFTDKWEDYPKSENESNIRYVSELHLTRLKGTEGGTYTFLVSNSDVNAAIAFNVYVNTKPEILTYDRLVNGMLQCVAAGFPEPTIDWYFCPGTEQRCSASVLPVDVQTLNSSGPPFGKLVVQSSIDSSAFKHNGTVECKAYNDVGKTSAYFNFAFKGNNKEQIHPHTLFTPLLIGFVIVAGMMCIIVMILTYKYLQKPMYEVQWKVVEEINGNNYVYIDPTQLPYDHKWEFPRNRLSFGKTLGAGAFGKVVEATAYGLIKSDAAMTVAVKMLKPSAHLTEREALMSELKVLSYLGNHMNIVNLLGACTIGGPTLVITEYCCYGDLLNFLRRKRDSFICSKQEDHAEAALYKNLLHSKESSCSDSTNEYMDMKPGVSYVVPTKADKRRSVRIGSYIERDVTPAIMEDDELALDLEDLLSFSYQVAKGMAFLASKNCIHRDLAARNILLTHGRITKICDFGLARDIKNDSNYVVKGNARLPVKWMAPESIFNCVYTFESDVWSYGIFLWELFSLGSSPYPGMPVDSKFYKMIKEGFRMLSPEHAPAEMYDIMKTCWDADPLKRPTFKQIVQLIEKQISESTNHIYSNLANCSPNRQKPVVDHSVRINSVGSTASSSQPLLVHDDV
Dual specificity mitogen-activated protein kinase kinase 1, sequence (Q02750 whole entry, the tested form may be a part): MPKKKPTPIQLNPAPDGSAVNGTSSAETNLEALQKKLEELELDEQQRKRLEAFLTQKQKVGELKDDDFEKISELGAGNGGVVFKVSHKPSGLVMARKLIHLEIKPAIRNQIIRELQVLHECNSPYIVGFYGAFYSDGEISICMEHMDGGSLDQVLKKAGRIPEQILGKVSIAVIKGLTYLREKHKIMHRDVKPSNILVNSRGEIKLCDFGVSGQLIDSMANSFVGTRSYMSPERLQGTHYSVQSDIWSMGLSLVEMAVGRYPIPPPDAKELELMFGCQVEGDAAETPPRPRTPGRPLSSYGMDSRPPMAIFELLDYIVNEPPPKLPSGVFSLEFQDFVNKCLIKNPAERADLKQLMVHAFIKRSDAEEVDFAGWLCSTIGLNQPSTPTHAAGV
BDNF/NT-3 growth factors receptor, sequence (Q16620 whole entry, the tested form may be a part): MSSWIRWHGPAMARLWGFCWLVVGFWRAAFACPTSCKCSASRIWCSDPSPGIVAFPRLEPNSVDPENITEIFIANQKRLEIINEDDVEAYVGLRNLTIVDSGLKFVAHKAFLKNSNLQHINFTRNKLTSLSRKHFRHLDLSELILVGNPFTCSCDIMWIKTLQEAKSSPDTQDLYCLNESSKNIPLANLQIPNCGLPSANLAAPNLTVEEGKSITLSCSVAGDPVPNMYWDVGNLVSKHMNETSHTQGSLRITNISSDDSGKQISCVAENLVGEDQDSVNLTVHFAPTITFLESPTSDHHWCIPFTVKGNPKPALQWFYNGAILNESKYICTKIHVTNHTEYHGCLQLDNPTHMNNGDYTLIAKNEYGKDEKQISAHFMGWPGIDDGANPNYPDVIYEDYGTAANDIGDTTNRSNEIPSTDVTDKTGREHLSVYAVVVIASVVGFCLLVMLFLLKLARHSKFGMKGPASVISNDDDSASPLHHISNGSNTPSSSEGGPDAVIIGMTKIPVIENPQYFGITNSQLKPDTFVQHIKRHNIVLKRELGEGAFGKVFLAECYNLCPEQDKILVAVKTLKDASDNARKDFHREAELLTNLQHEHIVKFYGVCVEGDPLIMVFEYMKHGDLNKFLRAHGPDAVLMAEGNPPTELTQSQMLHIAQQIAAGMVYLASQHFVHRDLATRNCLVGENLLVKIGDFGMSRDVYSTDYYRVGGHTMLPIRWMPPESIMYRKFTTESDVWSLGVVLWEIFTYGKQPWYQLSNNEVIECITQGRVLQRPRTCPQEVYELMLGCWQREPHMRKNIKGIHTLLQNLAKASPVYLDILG
Wee1-like protein kinase, sequence (P30291 whole entry, the tested form may be a part): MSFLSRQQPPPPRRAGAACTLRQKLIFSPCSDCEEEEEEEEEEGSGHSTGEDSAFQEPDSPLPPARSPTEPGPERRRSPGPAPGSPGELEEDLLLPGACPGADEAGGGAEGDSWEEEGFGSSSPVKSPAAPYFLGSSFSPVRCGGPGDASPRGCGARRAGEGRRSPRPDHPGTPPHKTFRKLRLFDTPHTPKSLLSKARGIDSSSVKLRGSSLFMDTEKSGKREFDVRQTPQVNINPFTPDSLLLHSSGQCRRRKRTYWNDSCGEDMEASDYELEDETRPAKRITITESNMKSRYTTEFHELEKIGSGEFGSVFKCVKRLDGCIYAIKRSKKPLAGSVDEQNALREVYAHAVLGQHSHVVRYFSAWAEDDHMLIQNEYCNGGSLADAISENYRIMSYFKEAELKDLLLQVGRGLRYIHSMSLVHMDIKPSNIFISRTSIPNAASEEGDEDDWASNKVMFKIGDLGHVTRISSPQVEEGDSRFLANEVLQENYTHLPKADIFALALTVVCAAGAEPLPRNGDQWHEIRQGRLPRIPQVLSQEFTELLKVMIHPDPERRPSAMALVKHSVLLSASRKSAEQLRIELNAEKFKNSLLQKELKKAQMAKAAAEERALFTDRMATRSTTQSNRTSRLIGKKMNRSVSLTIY
Proto-oncogene tyrosine-protein kinase Src, sequence (P12931 2-536 limits assumed): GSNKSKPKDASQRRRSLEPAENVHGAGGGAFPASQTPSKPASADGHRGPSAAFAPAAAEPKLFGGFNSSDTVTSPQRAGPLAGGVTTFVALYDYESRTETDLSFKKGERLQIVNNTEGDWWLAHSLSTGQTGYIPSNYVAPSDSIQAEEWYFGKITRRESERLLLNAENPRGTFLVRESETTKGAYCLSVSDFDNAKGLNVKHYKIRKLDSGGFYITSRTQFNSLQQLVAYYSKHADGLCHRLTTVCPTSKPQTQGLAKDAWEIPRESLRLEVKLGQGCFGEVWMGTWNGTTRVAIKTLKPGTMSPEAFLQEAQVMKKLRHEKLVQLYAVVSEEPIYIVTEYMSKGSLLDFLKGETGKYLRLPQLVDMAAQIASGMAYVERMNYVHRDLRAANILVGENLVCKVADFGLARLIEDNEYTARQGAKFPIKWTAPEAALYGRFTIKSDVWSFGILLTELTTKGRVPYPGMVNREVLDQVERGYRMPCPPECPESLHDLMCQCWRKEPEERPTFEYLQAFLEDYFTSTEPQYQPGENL

- IC50 (MCF7): 2.16 µM
- IC50 (Jurkat): 2.7 µM
- IC50 (SRSF protein kinase 1): 7.8 µM
- IC50 [2]: 6.3 µM
- IC50 [3]: 8.8 µM
- IC50 [4]: 11 µM
- IC50 [5]: 13 µM
- IC50 [6]: 21 µM
- IC50 [7]: 23 µM
- IC50 [8]: 43 µM
- IC50 [9]: 35 µM
- IC50 (Wee1-like protein kinase): 79 µM
- IC50 [11]: 90 µM
- IC50 [12]: 100 µM
- IC50 [13]: > 100 µM
- inhibition (INH) [20]: Not Active
SMILES: CN(CCc1ccc(-c2ccccc2)cc1)Cc1cn(C)c2ccc(C(=O)Nc3ccc(F)cc3)cc12
- Activity (IEC-6 [1]): Toxic
- IC50 [10]: 61 µM
- Activity (IEC-6 [14]): Toxic
- Activity (HeLa [15]): Active
- Activity (HeLa [16]): Active
- Activity (HeLa [17]): Active
- Activity (IEC-6 [18]): Toxic
- Activity (IEC-6 [19]): Non-Toxic
- Activity (HeLa [21]): inactive
- Activity (IEC-6 [22]): Non-Toxic
